# Test results reported in US20260027116A1, “Methods of Treating Chronic Graft-Versus-Host Disease Following Allogeneic Hematopoietic Stem Cell Transplantation” (Kadmon Corporation, LLC, priority 2022, published 2026).
# Tested on: chronic graft-versus-host disease (cGVHD)
# Assay: Example 1 phase IIa study: response per 2014 NIH cGVHD criteria (ORR, BOR, DOR, TTR, TTNT, FFS, OS, organ response)
# Format: in vivo, human
# Settings: for DOR, median (95% CI) / TTR, median: responder population
# Source text: Eligible patients were allogeneic bone marrow transplant or allogeneic hematopoietic cell transplant (alloHCT) recipients of age≥18 years with persistent cGVHD manifestations after having received one to three prior systemic lines of therapy and who were receiving corticosteroid treatment with or without a calcincurin inhibitor and/or concurrent extracorporeal photopheresis.
# Inclusion criteria. Adult male and female subjects at least 18 years of age who had allogenic bone marrow transplant or hematopoietic stem cell transplantation. Received glucocorticoid therapy and calcineurin therapy or glucocorticoid therapy alone for cGVHD at study entry. Participants on calcineurin therapy only, without glucocorticoid therapy, were not eligible. Participants also received other therapies thought not to be immunosuppressive (such as extracorporeal photopheresis; ECP), were considered for enrollment in this study on a case-by-case basis. […] No more than 3 prior lines of treatment for cGVHD. Karnofsky Performance Scale of greater than (>) 40.
# Exclusion Criteria. Participant who was pregnant or breastfeeding. Received an investigational GVHD treatment within 28 days of study entry. Had acute GVHD. Taken any medication known to be a moderate or strong inhibitor of the cytochrome (CY) P3A4 isozyme or any drugs that are moderate or strong CYP3A4 inducers. History or other evidence of severe illness or any other conditions that would make the participant, in the opinion of the investigator, unsuitable for the study (such as poorly controlled psychiatric disease or coronary artery disease). Regular and excessive use of alcohol within the 6 months prior to study entry defined as alcohol intake>14 drinks per week in a man or >7 drinks per week in a woman. Approximately 10 grams of alcohol equals one “drink” unit. One unit equals 1 ounce of distilled spirits, one 12-ounce beer, or one 4-ounce glass of wine. Known history of human immunodeficiency virus or active hepatitis C virus or hepatitis B virus. Diagnosed with another malignancy (other than malignancy for which transplant was performed) within 3 years of enrollment, with the exception of completely resected basal cell or squamous cell carcinoma of the skin, resected in situ cervical malignancy, resected breast ductal carcinoma in situ, or low-risk prostate cancer after curative resection. Relapse of the underlying cancer or post-transplant lymphoproliferative disease at the time of screening. […] Taken other immunosuppressant drugs for GVHD, including mammalian target of rapamycin inhibitors (Note: Only steroids, calcineurin inhibitors, and ECP are acceptable). Corrected QT interval using Fridericia's formula >450 milliseconds.
# (FIG. 1) Before enrollment of the subsequent cohort, safety data in each previous cohort were analyzed after eight patients reached two months of treatment to assure that there was no safety signal. […] No safety concerns were identified, allowing for planned dose escalation.
# Progression was defined per the 2014 NIH cGVHD Consensus Criteria. Long-term follow-up was conducted every 8 weeks until study closeout. […] Screening was conducted within 28 days of the first study dose. Response was initially assessed after two cycles; however, this was amended to evaluate response on day 1 of each cycle, starting at cycle 2 day 1.
# All responses were assessed by the investigators.
# Assuming a best ORR of 25%, which was determined to be clinically meaningful, the study was expected to have approximately 90% probability to show a response in ≥2 patients per cohort. This study was not powered to show significant differences between cohorts with respect to efficacy, AEs, or PD analyses. The primary analysis was conducted using the safety population, defined as enrolled patients who received ≥1 dose of study medication. The Clopper-Pearson (exact) method was used to construct the two-sided 95% CI for ORR. The Kaplan-Meier (K-M) method was used to calculate estimates of FFS and OS. […]
smiles,measurement,setting,value
"CC(C)NC(=O)COc1cccc(-c2nc(Nc3ccc4[nH]ncc4c3)c3ccccc3n2)c1 [Belumosudil, 2-{3-[4-(1H-indazol-5-ylamino)-2-quinazolinyl]phenoxy}-N-(propan-2-yl) acetamide]","BOR CR, participants (%)",Cohort 1 200 mg QD,0 (0%) participants
same,"BOR LOR-M, participants (%)",Cohort 1 200 mg QD,2 (12%) participants
same,"BOR LOR-P, participants (%)",Cohort 1 200 mg QD,2 (12%) participants
same,"BOR LOR-U, participants (%)",Cohort 1 200 mg QD,2 (12%) participants
same,"BOR PR, participants (%)",Cohort 1 200 mg QD,11 (65%) participants
same,"FFS, median (95% CI)",Cohort 1 200 mg QD,11 (4-na* %) months
same,"ORR subgroup refractory to previous LOT, n/N",Cohort 1 200 mg QD,7/11
same,"ORR subgroup severe cGVHD, n/N",Cohort 1 200 mg QD,8/12
same,"ORR subgroup ≤2 prior LOTs, n/N",Cohort 1 200 mg QD,10/15
same,"ORR subgroup ≤4 organs involved, n/N",Cohort 1 200 mg QD,4/8
same,"ORR, % (95% CI)",Cohort 1 200 mg QD,65%
same,"TTNT, median (95% CI)",Cohort 1 200 mg QD,15 (5-NA* %) months
same,"best response (CR or PR) in Skin, percentage of participants",Cohort 1 200 mg QD,(23%)
same,"best response in Esophagus, percentage of participants",Cohort 1 200 mg QD,(50%)
same,"best response in Eyes, percentage of participants",Cohort 1 200 mg QD,(36%)
same,"best response in Joints and Fascia, percentage of participants",Cohort 1 200 mg QD,(55%)
same,"best response in Lower GI tract, percentage of participants",Cohort 1 200 mg QD,(0%)
same,"best response in Lungs, percentage of participants",Cohort 1 200 mg QD,(0%)
same,"best response in Mouth, percentage of participants",Cohort 1 200 mg QD,(46%)
same,"best response in Upper GI tract, percentage of participants",Cohort 1 200 mg QD,(100%)
same,"DOR, median (95% CI)","Cohort 1, 200 mg QD",40 (8-na* %) weeks
same,"TTR, median","Cohort 1, 200 mg QD",8.14 weeks
same,"BOR CR, participants (%)",Cohort 2 200 mg BID,0 (0%) participants
same,"BOR LOR-M, participants (%)",Cohort 2 200 mg BID,1 (6%) participants
same,"BOR LOR-P, participants (%)",Cohort 2 200 mg BID,1 (6%) participants
same,"BOR LOR-U, participants (%)",Cohort 2 200 mg BID,3 (19%) participants
same,"BOR PR, participants (%)",Cohort 2 200 mg BID,11 (69%) participants
same,"FFS, median (95% CI)",Cohort 2 200 mg BID,10 (4-19%) months
same,"ORR subgroup refractory to previous LOT, n/N",Cohort 2 200 mg BID,6/9
same,"ORR subgroup severe cGVHD, n/N",Cohort 2 200 mg BID,9/14
same,"ORR subgroup ≤2 prior LOTs, n/N",Cohort 2 200 mg BID,5/8
same,"ORR subgroup ≤4 organs involved, n/N",Cohort 2 200 mg BID,8/10
same,"ORR, % (95% CI)",Cohort 2 200 mg BID,69%
same,"TTNT, median (95% CI)",Cohort 2 200 mg BID,10 (4-19%) months
same,"best response (CR or PR) in Skin, percentage of participants",Cohort 2 200 mg BID,(17%)
same,"best response in Eyes, percentage of participants",Cohort 2 200 mg BID,(36%)
same,"best response in Joints and Fascia, percentage of participants",Cohort 2 200 mg BID,(46%)
same,"best response in Liver, percentage of participants",Cohort 2 200 mg BID,(50%)
same,"best response in Lower GI tract, percentage of participants",Cohort 2 200 mg BID,(100%)
same,"best response in Lungs, percentage of participants",Cohort 2 200 mg BID,(0%)
same,"best response in Mouth, percentage of participants",Cohort 2 200 mg BID,(46%)
same,"best response in Upper GI tract, percentage of participants",Cohort 2 200 mg BID,(100%)
same,"DOR, median (95% CI)","Cohort 2, 200 mg BID",11 (2-35%) weeks
same,"TTR, median","Cohort 2, 200 mg BID",8.14 weeks
same,"BOR CR, participants (%)",Cohort 3 400 mg QD,0 (0%) participants
same,"BOR LOR-M, participants (%)",Cohort 3 400 mg QD,0 (0%) participants
same,"BOR LOR-P, participants (%)",Cohort 3 400 mg QD,1 (5%) participants
same,"BOR LOR-U, participants (%)",Cohort 3 400 mg QD,4 (19%) participants
same,"BOR PR, participants (%)",Cohort 3 400 mg QD,12 (57%) participants
same,"FFS, median (95% CI)",Cohort 3 400 mg QD,10 (3-16%) months
same,"ORR subgroup refractory to previous LOT, n/N",Cohort 3 400 mg QD,9/15
same,"ORR subgroup severe cGVHD, n/N",Cohort 3 400 mg QD,8/16
same,"ORR subgroup ≤2 prior LOTs, n/N",Cohort 3 400 mg QD,8/12
same,"ORR subgroup ≤4 organs involved, n/N",Cohort 3 400 mg QD,7/9
same,"ORR, % (95% CI)",Cohort 3 400 mg QD,62%
same,"TTNT, median (95% CI)",Cohort 3 400 mg QD,14 (3-NA %) months
same,"best response (CR or PR) in Skin, percentage of participants",Cohort 3 400 mg QD,(13%)
same,"best response in Esophagus, percentage of participants",Cohort 3 400 mg QD,(25%)
same,"best response in Eyes, percentage of participants",Cohort 3 400 mg QD,(24%)
same,"best response in Joints and Fascia, percentage of participants",Cohort 3 400 mg QD,(42%)
same,"best response in Lower GI tract, percentage of participants",Cohort 3 400 mg QD,(0%)
same,"best response in Lungs, percentage of participants",Cohort 3 400 mg QD,(30%)
same,"best response in Mouth, percentage of participants",Cohort 3 400 mg QD,(46%)
same,"best response in Upper GI tract, percentage of participants",Cohort 3 400 mg QD,(50%)
same,"DOR, median (95% CI)","Cohort 3, 400 mg QD",16 (4-38%) weeks
same,"TTR, median","Cohort 3, 400 mg QD",8.07 weeks
same,2-year OS rate,Example 1,82%
same,12-month FFS rate with response,Example 1,24%
same,ORR among patients with nonsevere cGVHD,Example 1,83%
same,median DOR across all responders,Example 1,35 weeks
same,share of all responses achieved by first response assessment at week 8,Example 1,> 75%
same,FFS rate,"Example 1, at 6 months",76%
same,FFS rate,"Example 1, at 12 months",47%
same,median TTNT,"Example 1, pooled",14 months
same,patients with progression in joints,"Example 1, safety population (FIG. 3B)",11 patients
same,"ORR subgroup refractory to previous LOT, % (95% CI)","Total, N=54",63%
same,"ORR subgroup severe cGVHD, % (95% CI)","Total, N=54",60%
same,"ORR subgroup ≤2 prior LOTs, % (95% CI)","Total, N=54",66%
same,"ORR subgroup ≤4 organs involved, % (95% CI)","Total, N=54",70%
same,"ORR, % (95% CI)","Total, N=54",65%
same,"ORR subgroup refractory to previous LOT, n/N","Total, N=54, listed as KD025",22/35
same,"ORR subgroup severe cGVHD, n/N","Total, N=54, listed as KD025",25/42
same,"ORR subgroup ≤2 prior LOTs, n/N","Total, N=54, listed as KD025",23/35
same,"ORR subgroup ≤4 organs involved, n/N","Total, N=54, listed as KD025",19/27
